Experimental findings from a melting point compilation (Tetko et al.; mined from patent text by program, amines drawn as free bases though some values may be those of a salt) are described below.

Usually melting point stands for the temperature, or range, at which the solid turns liquid.

`CCOc1ccc2c(c1)n(C1CCCC1)c(=O)n2S(=O)(=O)c1ccc(C(=O)OC)cc1OC`: the melting point was found to be 151 °C.

With `Cc1c(C(=O)Nc2ccc(N3CCC(c4ccccc4)CC3)c(C#N)c2)cnn1-c1ccc(Cl)cc1`, the melting point is 186 to 188 °C.

In turn, `O=C(NO)c1cc2ccccc2cn1` registered a melting point of 160 to 165 °C. `COc1cc2c(cc1OC)-c1ncc(C(=O)O)c(=O)n1CC2` showed a melting point of 264 to 266 °C. Next, `O=c1cc(-c2c(F)cccc2F)[nH]c(=O)n1-c1ccc(Cl)c(Cl)c1`: 256 °C; `C[C@H](CSC(=O)C1CCCCC1)C(=O)N1CSC[C@H]1C(=O)O`: 79.5 to 80 °C; `c1ccc(-c2cn[nH]c2)nc1`: 136 °C. Next, `O=c1c(CCl)cc2cc([N+](=O)[O-])ccc2n1-c1ccccc1`: 152 to 154 °C. In turn, `Cc1ccc(S(=O)(=O)N(Cc2cc(C(C)(C)C)c(O)c(C(C)(C)C)c2)c2cccnc2)cc1` yielded a melting point of 121 to 123 °C. Under `COc1cc(COc2nn(-c3ccccc3)cc2CC(=O)O)ccc1OCc1nc(-c2ccccc2)oc1C` stands 147 to 148 °C; under `CC1(C)CC(=O)C(S(=O)Cc2ccc(Cl)cc2)=C(O)C1` (configuration not stated), 144 to 145 °C. Under `Cc1noc(C)c1C(=O)Nc1ccc(-n2nc(C(F)(F)F)cc2C2CC2)c(F)c1` stands 163 to 165 °C. Next, `O=C(N[C@H]1CC[C@H](CCN2CCN(c3nccc4c3CCO4)CC2)CC1)c1ccccc1`: 208 °C. `CC1(C)CC(SCc2c(C(F)(F)F)nn(C(F)F)c2Cl)=NO1` returned a melting point of 41 to 42 °C.

`COc1ccc(-c2cncn2-c2ccc(S(=O)(=O)NC(C)(C)C)cc2)cc1F` displayed a melting point of 229 to 232 °C. Next, `CCOC(=O)C=C(N)C(C)(C)OC(N)=O`: 109 to 111 °C; `CCOC(=O)C(=O)Nc1cc(C#N)cc([N+](=O)[O-])c1`: 114 to 116 °C; `Cc1nnc(SCC(=O)C23CC4CC(CC(C4)C2)C3)n1C(C)C`: 119 to 120 °C. Under `Nc1cc(O)cc(O)c1` stands 150 °C; under `CCCN1C(=O)c2cnc(-c3ccccc3)nc2N(C(=O)CN2CCN(C)CC2)c2ccccc21`, 148 to 150 °C.

In the case of `Cc1cc(F)ccc1Nc1c(C(=O)C(C)C)cnc2c(CO)cccc12`, the melting point is 139 to 140 °C. Under `O=c1nc(N2CCCc3ccccc32)sc2ncccc12` stands 174 to 175 °C.

As for `CC(=O)OC1=C(C=O)C=C2OCCC2C1` (configuration not stated), the melting point is 68 to 70 °C. Next, `CCOC(=O)NC(C)COc1ccc(Oc2ccc(F)cc2)cc1` (configuration not stated): 55 to 56 °C. `CCOC(=O)c1c(O)c2cnc(-c3ccccc3)nc2n(CCOC)c1=O`: the melting point is 178 to 179 °C. Under `Clc1ccc2ncc(Cl)nc2c1` stands 120 to 121 °C; under `CS(=O)(=O)N1CCC(Nc2nc(Nc3ccc(F)c(C(=O)N4CCOCC4)c3)nc(OCC(F)(F)F)n2)CC1`, 217 to 219 °C. Next, `CCC1(CCCCCl)C(=O)Nc2ccccc21` (configuration not stated): 104 to 105 °C; `NC(=S)c1ncn(C2OC(COS(N)(=O)=O)C(O)C2O)n1` (configuration not stated): 173 to 175 °C. Under `CCOC(=O)C(=O)c1csc(NC(=O)Nc2c(C)cccc2C)n1` stands 172 to 174 °C; under `NC(=O)C(c1ccc(Cl)cc1)c1ncc(C(F)(F)F)cc1Cl` (configuration not stated), 135 to 136 °C; under `COc1ccc(C(=O)Nc2c(Cl)cncc2Cl)cc1OC1COCC1OCc1ccccc1` (configuration not stated), 190 to 191 °C. Compound `CC(C)c1cccc(COCCCn2ccnc2)c1NC(=O)CC1c2ccccc2Oc2ccccc21` came in with a melting point of 131 to 132 °C. `CC(C)C[C@H](NC(=O)OCC1CCCCC1)C(=O)N[C@@H](C(C)C)[C@@H](O)c1c(-c2ccc(F)cc2)c1=O` registered a melting point of 86 to 90 °C. Next, `C=CCN1N=C(c2ccc3c(c2)N(S(C)(=O)=O)CCO3)CCC1=O`: 153 to 155 °C; `COc1ccnc(CN2C(=O)C(NC(=O)Nc3cccc(C)c3)N=C(c3ccccc3F)c3ccccc32)c1` (configuration not stated): 195 to 200 °C. `O=c1cc(C(F)(F)F)c2ccc(NCc3ccccc3)cc2o1` registered a melting point of 136 to 137 °C. Next, `COC(=O)C(Cc1ccc([N+](=O)[O-])c(OCc2ccccc2)c1)NC(=O)OC(C)(C)C` (configuration not stated): 104 to 105 °C; `COc1ccc2c(c1)CN(C(=O)N(C)C)N=C2Cc1c(Cl)cncc1Cl`: 160 to 162 °C; `Cc1oc(-c2ccccc2)nc1COc1ccc(/C=C/C=O)cn1`: 147 to 148 °C. Under `CCOC(=O)c1c(C)ccnc1Sc1nc(C)c(CC(=O)O)s1` stands 164 to 166 °C. Under `COP1(=S)OCc2cc(C)cnc2O1` (configuration not stated) stands 74 to 75 °C; under `C(=C\c1nc(COc2ccc(CCCCn3ccnc3-c3ccccc3)cc2)co1)/c1ccccc1`, 85 to 86 °C. On to `O=C(N[C@H]1CC[C@H](CCN2CCN(c3nccc4c3OCC4)CC2)CC1)C1(O)CCC1`, for which the melting point was 250 °C. Under `O=C1Nc2ccccc2N2CCN(CCc3ccccn3)CC12` (configuration not stated) stands 167 to 169 °C. Turning to `O=C(NNC(=O)c1ccc([N+](=O)[O-])cc1)c1ccc([N+](=O)[O-])cc1`, the melting point is 294 °C. In turn, `N#CC(C#N)=C1N(CCCCN2CCCCC2)CCN1CCCN1CCCCC1` registered a melting point of 88 to 90 °C. In the case of `CC(=O)NCc1cccc(Nc2nccc(-c3sc(NCc4ccccc4)nc3C)n2)c1`, the melting point fell in the range of 181 to 183 °C. Compound `CC(=O)OC(C)c1cc2c(s1)C(=O)c1ccsc1C2=O` (configuration not stated) showed a melting point of 174 to 176 °C.

As for `CS(=O)(=O)c1ccc(C2=C(c3ccccc3)CCC2)cc1`, the melting point is 136 to 137 °C. With `CC(=O)Oc1ccc(-c2cnc[nH]c2=O)cc1OC(C)=O`, the melting point fell in the range of 183 to 184 °C. Take `O=S1(=O)N=CN(C2CCCCC2)c2cc(Cl)c(Cl)cc21`: the melting point was in the range of 219 to 222 °C. Under `COC1CN(c2ccc(N3C[C@H](CN=[N+]=[N-])OC3=O)cc2F)C1` stands 111 to 112 °C; under `COc1cccc(-c2ccc(C3C(CCC(O)c4ccc(F)cc4)C(=O)N3c3ccc(F)cc3)cc2)c1OC` (configuration not stated), 101 °C; under `O=C(Nc1ccc2ccc(Oc3ccccc3)nc2n1)c1cccs1`, 176 °C. Next, `Nc1c([N+](=O)[O-])cc(F)c(Cl)c1F`: 96 to 97 °C; `O=Cc1c(Cl)nc(-c2ccccc2)n1Cc1ccc(Br)cc1`: 92 to 95 °C. Next, `COc1c(-c2ccc(S(C)(=O)=O)cc2)cnn(-c2cccc(Cl)c2)c1=O`: 112 to 114 °C; `O=CN(O)C(CS(=O)(=O)c1ccccc1Oc1ccc(OC(F)(F)F)cc1)C(CO)CO` (configuration not stated): 129 to 131 °C. The compound `CN(C)CCc1c[nH]c2ccc([N+](=O)[O-])cc12` had a melting point of 132 to 135 °C. Under `COCCC(=O)N[C@H]1CC[C@H](CCN2CCC(c3cccc4c3CCO4)CC2)CC1` stands 182 °C. Under `Nc1ccc(-c2ccncc2)nn1` stands 199 to 201 °C; under `CCN(CC)CCOC(=O)c1nn(-c2ccc(Cl)cc2)c2c1CCc1ccccc1-2`, 102 to 103 °C; under `CNCc1ccc(-c2cc3ncnc(Nc4ccc5[nH]ccc5c4)c3s2)cc1`, 140 to 147 °C. Next, `O=C(c1ccc(F)cc1)N1CCCC(c2nc(-c3ccc(F)cc3)no2)C1` (configuration not stated): 118 to 122 °C; `CCOC(=O)CC(NC(=O)c1cccc(NC(=O)c2cnc(NC(=N)N)s2)c1)c1ccccc1` (racemic): 149 °C. Compound `CCOC(OCC)[C@@H]1CCCN1C(=O)[C@@H]1CCCN1C(=O)OCc1ccccc1` displayed a melting point of 58.5 to 61 °C. Next, `CCOC1=Nc2ccc(Cl)cc2C(c2ccccc2Cl)=NC1OC` (configuration not stated): 110 to 113 °C; `CN(C)C=CC(=O)c1ccc(Cl)cc1`: 78.5 to 80.5 °C; `O=C1CN[C@@H](c2ccccc2)[C@@H](c2ccccc2)O1`: 139 °C. In turn, `CCCCCCCCCCCCc1c[nH]c(C(=O)O)c1` returned a melting point of 152 to 153 °C. Under `O=C1CCNc2cc(Cl)c(F)cc21` stands 192 to 194 °C; under `CC(=O)c1c(C)[nH]c(CC(C)C)c1C`, 150 to 152 °C. Next, `COc1cc2c(cc1C(F)(F)F)N(C(=O)Nc1ccc3c(ccn3Cc3cccnc3)c1)CC2`: 243 to 246 °C; `CC(=C1SC(=O)NC1=O)c1ccc(OCCOc2c(-c3ccc(F)c(F)c3)n(C)c3ccc(F)cc3c2=O)c(Cl)c1`: 215 to 218 °C. Next, `Cc1ccc2c(c1)c(N1CCN(C(=O)c3ccco3)CC1)c(C#N)c(=O)n2Cc1ccc(F)cc1`: 276 °C; `COC(=N)c1cc(Oc2ccc(C(F)(F)F)cc2Cl)ccc1[N+](=O)[O-]`: 46 °C. For the compound `N=C(N)Nc1nc(C(=O)NCCCC(CC(=O)O)c2ccccc2)cs1` (racemic), the melting point was found to be 230 °C. Under `CO[C@@H]1[C@@H](OC)[C@H](C)O[C@@H](ONC(=O)c2ccc(-c3cn(-c4ccc(OC(F)(F)F)cc4)cn3)cc2)[C@@H]1OC` stands 185 °C; under `CCOc1cc2cc(C(=O)O)sc2cc1OCC`, 243 to 245 °C; under `Cc1cc2nc3c4cc([N+](=O)[O-])ccc4n(CCN(C)C)c3nc2cc1C`, 219 °C. Take `O=C(CCC1c2ccccc2-c2ccccc21)Nc1ccc(C(=O)O)c(O)c1`: the melting point lay in the range of 225 to 228 °C. Next, `O=C(COc1cc(-c2ccccc2)nc2cccc(Cl)c12)N1CCOCC1`: 168 °C; `O=C1C2=C(CCCC2)C(=O)N1c1cc(OC2CCCCC2)c(Cl)cc1F`: 102 to 103 °C. In turn, `FC(F)(F)c1ccc(-c2cc(C(F)(F)F)cc(Br)n2)cc1` yielded a melting point of 35 to 37 °C. Under `CCOC(=O)CC(c1cccnc1)N1CCN(CCCOc2ccc(C#N)cc2)C(=O)C1=O` (configuration not stated) stands 110 to 112 °C; under `O=C(N1CCC2(C=Cc3ccccc32)CC1)N1CCCc2ccccc21`, 130 to 133 °C.
